Data set [1] is described as follows: Water sorption/desorption isotherms (Dynamic Vapor System DVS-1). It is filed as physicochemical. The method, then: Sorption/desorption isotherms were measured using the Dynamic Vapor System (DVS-1). Measurement was carried out at 25° C. and 40° C.
Data set [2] can be described thus: Storage of Form I samples at elevated temperature and 75% r.h. The class given is physicochemical.

Structures can show the parent of a compound that is named as a salt.

Consider `CCCCCCCCc1ccc(CCC(N)(CO)CO)cc1` [FTY720 HCl, 2-amino-2-[2-(4-octylphenyl)ethyl]propane-1,3-diol hydrochloride salt], for which the “relative humidity of first water uptake, water sorption isotherm” value in data set [1] (isotherm recorded at 25° C.) is recorded as 90 % r.h. Also, the “relative humidity of first significant water uptake, water sorption isotherm” value in data set [1] (isotherm recorded at 40° C.) was found to be 80 % r.h.

With `CCCCCCCCc1ccc(CCC(N)(CO)CO)cc1` [Form I], the “solid form after storage” value in data set [2] (stored 1 month at 60° C. and 75% r.h.) is on record as “conversion to the hydrate form”; in data set [2] (stored 1 month at 80° C. and 75% r.h.), “conversion to the hydrate form”.

The values above are taken from patent US8530522B2, “Organic compounds” (Novartis AG, priority 2008, dated 2013).
